The values below come from PubChem BioAssay (NCI).

What is called GI50 is the concentration that inhibits growth by half. As usually defined, the TGI is the concentration giving total growth inhibition. High values mean less potent growth arrest, low ones more potent growth arrest.

The structures appear in SMILES notation.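 Briefly, cells in 96-well plates were exposed to five compound concentrations for 48 h, and endpoints were estimated by linear interpolation. GI50 is the concentration that inhibits growth by half. TGI marks complete inhibition of growth.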

Common to all, as to test: DTP human tumour cell line panel, 48 h
Assay [1] has as its system A498 renal.
The test system of assay [2] is HOP-92 NSCLC.
Assay [3] concerns HT29 colon.
Assay [4] has as its system IGROV1 ovarian.
Assay [5] has as its system MDA-MB-435.
For assay [6], the system named is NCI-H460 lung.
Assay [7] has as its system RPMI-8226 leukemia.
For assay [8], the system named is SK-MEL-2 melanoma.

Turning to `C=CCSc1n[nH]c(-c2cccs2)n1`, the GI50 in assay [1], in assay [2], in assay [3], in assay [4], in assay [5] and in assay [6] was more than 100 µM throughout. For the same compound, the GI50 in assay [7] and in assay [8] was more than 100 µM each time. Further, the TGI in assay [1], in assay [2], in assay [3], in assay [4], in assay [5] and in assay [6] was more than 100 µM throughout. The TGI in assay [7] and in assay [8] was more than 100 µM throughout.

Consider `C=CC1=C(C)C2=NC1=CC1=NC(=C(CC)/C1=C/O)C=C1C=C3C(=O)C(C(=O)OC)C(=C4NC(=C2)C(C)C4CCC(=O)OC/C=C(\C)CCCC(C)CCCC(C)CCCC(C)C)C3=N1` (stereo not drawn) (tested in a mixture with another compound), for which the TGI in assay [1], in assay [2], in assay [3], in assay [4], in assay [5] and in assay [6] was more than 100 µM throughout. The TGI in assay [7] and in assay [8] was more than 100 µM each time.

As to `O=C1OC(c2ccc([N+](=O)[O-])cc2)=N/C1=C\c1ccc(O)cc1`, the TGI in assay [1], in assay [2], in assay [3], in assay [4], in assay [5] and in assay [6] was more than 100 µM throughout. Also, the TGI in assay [7] and in assay [8] was more than 100 µM throughout.

For the compound `C[C@]12CC[C@@H]3c4ccc(O)cc4CC[C@H]3[C@@H]1CC[C@@H]2NS(=O)(=O)c1cccc(Br)c1`, the GI50 was 1.8 µM in assay [1]; 1.85 µM in assay [2]; 3.76 µM in assay [3]; 4.04 µM in assay [4]; 2.69 µM in assay [5]; 2.53 µM in assay [6]. In addition, the GI50 in assay [7] is 3.41 µM; in assay [8], 3.68 µM. Also, the TGI in assay [1] stood at 8.45 µM; in assay [2], 6.44 µM; in assay [3], 12.7 µM; in assay [4], 16.5 µM; in assay [5], 9.21 µM; in assay [6], 6.67 µM. Moreover, the figures for the TGI in assay [7] and in assay [8] were 17.3 µM and 12 µM, respectively.

For the compound `O=C(O)[C@@H]1C[C@@H](O)CN1`, the TGI in assay [1], in assay [2], in assay [3], in assay [4], in assay [5] and in assay [6] was more than 100 µM throughout. Further, the TGI in assay [7] and in assay [8] was more than 100 µM throughout.

With `COC(=O)c1c2c(c(C)[n+]([O-])c1C)C(=O)C(NCc1ccc(F)c(Cl)c1)=CC2=O`, the GI50 is 1.52 µM in assay [1]; 2.52 µM in assay [2]; 1.35 µM in assay [3]; 1.47 µM in assay [5]; 1.51 µM in assay [6]; 3.08 µM in assay [7]. For the same compound, the GI50 in assay [8] was 2.02 µM. In addition, the TGI was 3.68 µM in assay [1]; 5.79 µM in assay [2]; more than 100 µM in assay [3]; 2.87 µM in assay [5]; 9.09 µM in assay [6]; 24.1 µM in assay [7]. The compound also displayed a TGI in assay [8] of 5.06 µM.

As for `CCOC(=O)c1c(C)c2c(n1C)CSc1cc(S(=O)(=O)c3ccccc3)c(=O)[nH]c1-2`, the GI50 in assay [2] is 1.11 µM; in assay [3], 16.3 µM; in assay [4], 16.7 µM; in assay [5], 30.8 µM; in assay [6] it was 25.7 µM; in assay [7] it was 14.8 µM. Also, the GI50 in assay [8] was 36.2 µM. In addition, the TGI was 28.5 µM in assay [2]; 34.5 µM in assay [3]; more than 100 µM in assay [4]; more than 100 µM in assay [5]; more than 100 µM in assay [6]; more than 100 µM in assay [7]. Moreover, the TGI in assay [8] is more than 100 µM.

In the case of `COc1ccc2cc(C(=O)/C=C/c3ccc(OC)c(OC)c3)ccc2c1`, the GI50 in assay [2] is 13.2 µM; in assay [3], 11.9 µM; in assay [4] it was 10.5 µM; in assay [5] it was 5.59 µM; in assay [6] it was 7.38 µM; in assay [7], 4.09 µM. Besides, the TGI in assay [2] is 80.3 µM; in assay [3], 76.4 µM; in assay [4] it was 78.2 µM; in assay [5] it was 43.4 µM; in assay [6], more than 100 µM; in assay [7], 20.3 µM.

For `COc1ccc(/C=N/NC(=O)O)cc1`, the TGI in assay [1], in assay [3], in assay [4], in assay [5], in assay [6] and in assay [7] was more than 100 µM in each case. The compound also came in with a TGI in assay [8] of more than 100 µM.

On to `COC(=O)/C(=C/N1CCN(C(=O)c2ccco2)C1=S)C(C)=O`, for which the GI50 in assay [2] is 20.8 µM; in assay [3], 15.8 µM; in assay [4], 10.4 µM; in assay [5], 4.51 µM; in assay [6], 2.19 µM; in assay [7], 5.49 µM. In addition, in assay [8], the GI50 was 15.2 µM. Besides, the total growth inhibition concentration (TGI) in assay [2] is 75.4 µM; in assay [3] it was 46 µM; in assay [4], 36 µM; in assay [5], 36.6 µM; in assay [6], 5.88 µM; in assay [7], more than 100 µM. Moreover, the TGI in assay [8] came out at 51 µM.

Turning to `O=C1/C(=C\c2ccccc2)c2ccccc2N1Cc1ccccc1`, the TGI in assay [2] stood at 13.8 µM; in assay [3] it was 14.4 µM; in assay [4] it was 16.5 µM; in assay [5] it was 16.5 µM; in assay [6], 19 µM; in assay [7] it was 9.28 µM. Moreover, in assay [8], the TGI stood at 17.1 µM.

Take `COc1cc2cc(C(=O)O)[nH]c2cc1OCc1ccccc1`: the GI50 is more than 100 µM in assay [3]; more than 100 µM in assay [4]; more than 100 µM in assay [5]; more than 100 µM in assay [6]; more than 100 µM in assay [7]; 44.9 µM in assay [8]. Also, the TGI in assay [3], in assay [4], in assay [5], in assay [6], in assay [7] and in assay [8] was more than 100 µM throughout.

Turning to `NC(C(=O)O)C(N)C(=O)O` (stereo not drawn), the TGI in assay [1], in assay [2], in assay [3], in assay [4], in assay [6] and in assay [7] was more than 100 µM throughout. For the same compound, the TGI in assay [8] was more than 100 µM.
